The numbers were not newly measured in patent US6645986B2 (Pfizer Products, Inc., priority 2000, dated 2003), which cites them from elsewhere.

Counter-ions that a name gives are not always drawn.

For this series the following is noted: compared with the anhydrous mesylate salt.

Take `C[C@@H]([C@@H](O)c1ccc(O)cc1)N1CCC(O)(c2ccccc2)CC1` [mesylate salt trihydrate, (1S,2S)-1-(4-hydroxyphenyl)-2-(4-hydroxy-4-phenylpiperidin-1-yl)-1-propanol mesylate trihydrate]: the “stability of crystalline form” value is reported as “more stable crystalline form than the anhydrous mesylate salt”.
